From PubChem BioAssay (NCI)
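Cultured in 96-well plates, cells were exposed to test compound for 48 hours across five concentrations. TGI is the concentration that stops growth completely.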

Experiments:
Experiment in all cases: NCI anticancer screen, dose series, 48 h
HL-60(TB) leukemia = test system: HL-60(TB) leukemia
SN12C renal = test system: SN12C renal
A498 renal = test system: A498 renal
MDA-N = test system: MDA-N
NCI-H522 lung = test system: NCI-H522 lung
T-47D breast = test system: T-47D breast
BT-549 breast = test system: BT-549 breast
ACHN renal = test system: ACHN renal
K-562 leukemia = test system: K-562 leukemia
OVCAR-5 ovarian = test system: OVCAR-5 ovarian
KM12 colon = test system: KM12 colon
OVCAR-8 ovarian = test system: OVCAR-8 ovarian
DU-145 prostate = test system: DU-145 prostate
SW-620 colon = test system: SW-620 colon
SF-539 CNS = test system: SF-539 CNS
COLO 205 colon = test system: COLO 205 colon
NCI-H226 lung = test system: NCI-H226 lung
CCRF-CEM leukemia = test system: CCRF-CEM leukemia
HCC-2998 colon = test system: HCC-2998 colon
SF-268 CNS = test system: SF-268 CNS
MALME-3M melanoma = test system: MALME-3M melanoma
SK-MEL-28 melanoma = test system: SK-MEL-28 melanoma
EKVX NSCLC = test system: EKVX NSCLC
NCI/ADR-RES ovarian = test system: NCI/ADR-RES ovarian
RPMI-8226 leukemia = test system: RPMI-8226 leukemia
HS 578T breast = test system: HS 578T breast
M14 melanoma = test system: M14 melanoma
A549 NSCLC = test system: A549 NSCLC
HOP-92 NSCLC = test system: HOP-92 NSCLC
MDA-MB-435 = test system: MDA-MB-435
PC-3 prostate = test system: PC-3 prostate
UACC-62 melanoma = test system: UACC-62 melanoma
U251 CNS = test system: U251 CNS
SK-MEL-2 melanoma = test system: SK-MEL-2 melanoma
TK-10 renal = test system: TK-10 renal
SR leukemia = test system: SR leukemia
CAKI-1 renal = test system: CAKI-1 renal
IGROV1 ovarian = test system: IGROV1 ovarian
NCI-H460 lung = test system: NCI-H460 lung
OVCAR-4 ovarian = test system: OVCAR-4 ovarian
MCF7 breast = test system: MCF7 breast
SNB-75 CNS = test system: SNB-75 CNS
HCT-15 colon = test system: HCT-15 colon
UACC-257 melanoma = test system: UACC-257 melanoma
MOLT-4 leukemia = test system: MOLT-4 leukemia
RXF 393 renal = test system: RXF 393 renal
OVCAR-3 ovarian = test system: OVCAR-3 ovarian
SK-MEL-5 melanoma = test system: SK-MEL-5 melanoma
MDA-MB-231 breast = test system: MDA-MB-231 breast
UO-31 renal = test system: UO-31 renal
SF-295 CNS = test system: SF-295 CNS
SNB-19 CNS = test system: SNB-19 CNS
HCT-116 colon = test system: HCT-116 colon
HOP-62 NSCLC = test system: HOP-62 NSCLC
NCI-H23 lung = test system: NCI-H23 lung
LOX IMVI melanoma = test system: LOX IMVI melanoma
786-0 renal = test system: 786-0 renal
HT29 colon = test system: HT29 colon
SK-OV-3 ovarian = test system: SK-OV-3 ovarian

## C=C(C)[C@@H]1CCC2=C[C@H](CC(C)=CC3=CC(C)=C(O3)[C@@H]1OC)OC2=O
HL-60(TB) leukemia
  TGI: > 100 µM
SN12C renal
  TGI: > 100 µM
A498 renal
  TGI: > 100 µM
MDA-N
  TGI: > 100 µM
NCI-H522 lung
  TGI: > 100 µM
T-47D breast
  TGI: > 100 µM
BT-549 breast
  TGI: > 100 µM
ACHN renal
  TGI: > 100 µM
K-562 leukemia
  TGI: > 100 µM
OVCAR-5 ovarian
  TGI: > 100 µM
KM12 colon
  TGI: > 100 µM
OVCAR-8 ovarian
  TGI: > 100 µM
DU-145 prostate
  TGI: > 100 µM
SW-620 colon
  TGI: > 100 µM
SF-539 CNS
  TGI: > 100 µM
COLO 205 colon
  TGI: > 100 µM
NCI-H226 lung
  TGI: > 100 µM
CCRF-CEM leukemia
  TGI: > 100 µM
HCC-2998 colon
  TGI: > 100 µM
SF-268 CNS
  TGI: > 100 µM
MALME-3M melanoma
  TGI: > 100 µM
SK-MEL-28 melanoma
  TGI: > 100 µM
EKVX NSCLC
  TGI: > 100 µM
NCI/ADR-RES ovarian
  TGI: > 100 µM
RPMI-8226 leukemia
  TGI: > 100 µM
HS 578T breast
  TGI: > 100 µM
M14 melanoma
  TGI: > 100 µM
A549 NSCLC
  TGI: > 100 µM
HOP-92 NSCLC
  TGI: > 100 µM
MDA-MB-435
  TGI: > 100 µM
PC-3 prostate
  TGI: > 100 µM
UACC-62 melanoma
  TGI: > 100 µM
U251 CNS
  TGI: > 100 µM
SK-MEL-2 melanoma
  TGI: 52.7 µM
TK-10 renal
  TGI: > 100 µM
SR leukemia
  TGI: > 100 µM
CAKI-1 renal
  TGI: > 100 µM
IGROV1 ovarian
  TGI: > 100 µM
NCI-H460 lung
  TGI: > 100 µM
OVCAR-4 ovarian
  TGI: > 100 µM
MCF7 breast
  TGI: > 100 µM
SNB-75 CNS
  TGI: > 100 µM
HCT-15 colon
  TGI: > 100 µM
UACC-257 melanoma
  TGI: > 100 µM
MOLT-4 leukemia
  TGI: > 100 µM
RXF 393 renal
  TGI: 56.9 µM
OVCAR-3 ovarian
  TGI: > 100 µM
SK-MEL-5 melanoma
  TGI: > 100 µM
MDA-MB-231 breast
  TGI: 87.3 µM
UO-31 renal
  TGI: > 100 µM
SF-295 CNS
  TGI: 70.5 µM
SNB-19 CNS
  TGI: > 100 µM

## Cc1nnc(-n2c(O)cc(=O)n(-c3ccccc3)c2=S)nc1/C=C/c1ccc(N(C)C)cc1
HL-60(TB) leukemia
  TGI: 7.1 µM
HCT-116 colon
  TGI: > 55.7 µM
SN12C renal
  TGI: > 96.1 µM
A498 renal
  TGI: > 55 µM
MDA-N
  TGI: > 100 µM
NCI-H522 lung
  TGI: 8.33 µM
T-47D breast
  TGI: > 60.7 µM
BT-549 breast
  TGI: > 70.7 µM
ACHN renal
  TGI: > 49.5 µM
K-562 leukemia
  TGI: 49.9 µM
OVCAR-5 ovarian
  TGI: > 75.3 µM
KM12 colon
  TGI: 21 µM
OVCAR-8 ovarian
  TGI: > 80.2 µM
DU-145 prostate
  TGI: > 90.1 µM
SW-620 colon
  TGI: > 52.9 µM
HOP-62 NSCLC
  TGI: > 100 µM
COLO 205 colon
  TGI: 21.2 µM
NCI-H226 lung
  TGI: > 100 µM
CCRF-CEM leukemia
  TGI: > 100 µM
HCC-2998 colon
  TGI: 22.7 µM
NCI-H23 lung
  TGI: 69.4 µM
SF-268 CNS
  TGI: > 53.8 µM
LOX IMVI melanoma
  TGI: 17.5 µM
MALME-3M melanoma
  TGI: 8.38 µM
SK-MEL-28 melanoma
  TGI: > 50.6 µM
EKVX NSCLC
  TGI: > 100 µM
NCI/ADR-RES ovarian
  TGI: > 100 µM
RPMI-8226 leukemia
  TGI: > 100 µM
HS 578T breast
  TGI: 56.3 µM
M14 melanoma
  TGI: > 100 µM
A549 NSCLC
  TGI: > 59 µM
HOP-92 NSCLC
  TGI: > 71.9 µM
MDA-MB-435
  TGI: 23.8 µM
PC-3 prostate
  TGI: > 46.2 µM
UACC-62 melanoma
  TGI: > 46.8 µM
U251 CNS
  TGI: > 46.4 µM
SK-MEL-2 melanoma
  TGI: 41.8 µM
TK-10 renal
  TGI: > 56.5 µM
SR leukemia
  TGI: > 100 µM
CAKI-1 renal
  TGI: > 57 µM
IGROV1 ovarian
  TGI: 34.2 µM
NCI-H460 lung
  TGI: > 54.8 µM
786-0 renal
  TGI: > 59.4 µM
OVCAR-4 ovarian
  TGI: > 58.1 µM
MCF7 breast
  TGI: > 40.9 µM
HT29 colon
  TGI: > 100 µM
SNB-75 CNS
  TGI: 21.1 µM
HCT-15 colon
  TGI: 13.5 µM
SK-OV-3 ovarian
  TGI: > 72 µM
UACC-257 melanoma
  TGI: > 55.8 µM
MOLT-4 leukemia
  TGI: > 100 µM
RXF 393 renal
  TGI: > 58.5 µM
SK-MEL-5 melanoma
  TGI: 21.9 µM
MDA-MB-231 breast
  TGI: > 55.7 µM
UO-31 renal
  TGI: 19.9 µM
SF-295 CNS
  TGI: > 62.2 µM
SNB-19 CNS
  TGI: > 63 µM
